System: 6-OHDA Stereotactic Injection Induced PD Rats
Test: Tolerability / general condition observation in PD rat model
Format: in vivo, Sprague-Dawley rats
Procedure: In this study, 16 Sprague Dawley (SD) male rats 180g-220g were used to establish a PD model by stereotactic unilateral injection of 6-OHDA in the substantia nigra (SN) and striatum (Str) brain areas after one week of acclimatization feeding and were randomly divided into 2 groups of 8 rats each. One group was dosed with the test compound BTUDC 500 mg/kg (QD, p.o.) and the other group was the Model group, which was given an equal volume of 0.5% CMC-Na (QD, p.o.) as the test compound group. The animals were administered once a day for 21 consecutive days starting from the second day after modeling to evaluate the tolerability and therapeutic potential of BTUDC in the 6-OHDA PD model.
The body weight and food intake of the rats were collected and recorded every day, and the cage side observation for the animals was carried out.
Experimental Methods: Seventy 180-220g SD male rats were selected and fed for one week for accumulation, and the PD model was established by stereotactic unilateral injection of 6-OHDA in the Substantia Nigra (SN) and Striatum (Str) regions and were randomly divided into five groups according to their body weights including Madopar group (Madopar, 50 mg/kg), BTUDC-L group (BTUDC, 100 mg/kg), BTUDC-M group (BTUDC, 500 mg/kg), and BTUDC-H group (BTUDC, 1000 mg/kg), with 10 animals in each group. Another 10 SD male rats were taken for sham operation (only 4 μL of 0.9% NS containing 0.02% ascorbic acid was given to the SN and Str brain regions during modeling) as the Sham group. The drug was administered by gavage once daily continuously for 21 days starting on the second day of modeling (first day of dosing, D1). General observation was made during the dosing period. At the end of the administration, the test articles were evaluated for tolerance in this model and in behavioral apomorphine—asymmetric rotation test, beam test, rotarod test and grip strength test, immunofluorescence staining (TH, Ibal), and cerebrospinal fluid inflammatory factor assays to evaluate the pharmacodynamic effects of the test articles. Inflammatory factors tested included interleukin 6 (1L-6), inflammatory factor […], Tumor Necrosis Factor alpha (TNF-α), inflammatory assays were done in a total of 4 groups included Sham, Model, Madopar and BTUDC-H groups.
Dosing volume: 10 mL/kg • 1. General observation: During the period of drug administration, body weight, food intake test and cage side observation were conducted […]. • 2. Behavioral test: After 21 days of administration, behavioral test was carried out on the following day. • 3. Histochemical test: After the behavioral test, the cerebrospinal fluid from each animal (N=10) was collected, centrifuged to collect the supernatant, and stored at −80° C. for Elisa test (IL-6, IL-1β, TNF-α), then the animals in each group (N=5) were randomly selected to take the modeling side of the striatum for the detection of neurotransmitters, and the rest of them (N=5) were subjected to cardiac perfusion, which was performed by the process of perfusion, fixation, sedimentation and slicing for immunofluorescence staining and photographed, and the number or area of signals were counted by ImageJ software. • 4. Data analysis: After the data were summarized and counted, they were analyzed using SPSS data statistics software (one-way ANOVA, p<0.05 was considered a significant difference), and images were plotted according to the results of SPSS analysis using Graph Pad software. […]

[1] = up to 1000 mg/kg p.o. Qd 21 days

## COc1ccc2cc3[n+](cc2c1OC)CCc1cc2c(cc1-3)OCO2.C[C@H](CCC(=O)NCCS(=O)(=O)[O-])[C@H]1CC[C@H]2[C@@H]3[C@@H](O)C[C@@H]4C[C@H](O)CC[C@]4(C)[C@H]3CC[C@]12C [BTUDC, Berberine tauroursodeoxycholate]
500 mg/kg QD p.o. 21 days
  tolerability in the PD rat model: well tolerated
500 mg/kg QD p.o. 21 days, vs model group
  mortality, moribundity, abnormal animal state: no Test Compound-related mortality or moribundity nor abnormal animal state
500 mg/kg QD p.o. 21 days, whole study period
  body weight and food intake vs model control group: no obvious differences
[1]
  body weight growth or food intake compared with other groups of animals: no obvious abnormalities
  tolerability: well tolerated
